The assay concerns the target T1, Xanthine oxidase (Rattus norvegicus, UniProt P22985).
T1 construct: Xanthine oxidase was obtained from rat liver; from tissue; host or cells: rat liver
In words: xanthine oxidase inhibiting activity (xanthine oxidase-catalyzed oxidation of xanthine to uric acid). Format: biochemical. Conditions: xanthine oxidase from rat liver; 10^-5 molar xanthine, 0.1M tris hydrochloride pH 8.1, 30° C., uric acid formation at 293 nm. As for the experimental part:
Xanthine oxidase was obtained from rat liver according to the method described by E. Della Corte and F. Stirpe in Biochem.J. 117, 97 (1970) and was aged for at least 24 hours prior to use. Solutions of 3 ml of 0.1M aqueous tris hydrochloride buffer (pH 8.1) containing 10^-5 molar xanthine were treated with 200 μl of xanthine oxidase dissolved in 0.1M aqueous tris hydrochloride buffer (pH 8.1) and incubated at 30° C. in the presence and absence of a test substance, whereupon the formation of uric acid from xanthine was monitored by measuring the light absorption at 293 nm. The IC50 , namely that concentration of a test substance required to inhibit by 50% the xanthine oxidase-catalyzed oxidation of xanthine to uric acid, was then determined.

T1 sequence (P22985 whole entry): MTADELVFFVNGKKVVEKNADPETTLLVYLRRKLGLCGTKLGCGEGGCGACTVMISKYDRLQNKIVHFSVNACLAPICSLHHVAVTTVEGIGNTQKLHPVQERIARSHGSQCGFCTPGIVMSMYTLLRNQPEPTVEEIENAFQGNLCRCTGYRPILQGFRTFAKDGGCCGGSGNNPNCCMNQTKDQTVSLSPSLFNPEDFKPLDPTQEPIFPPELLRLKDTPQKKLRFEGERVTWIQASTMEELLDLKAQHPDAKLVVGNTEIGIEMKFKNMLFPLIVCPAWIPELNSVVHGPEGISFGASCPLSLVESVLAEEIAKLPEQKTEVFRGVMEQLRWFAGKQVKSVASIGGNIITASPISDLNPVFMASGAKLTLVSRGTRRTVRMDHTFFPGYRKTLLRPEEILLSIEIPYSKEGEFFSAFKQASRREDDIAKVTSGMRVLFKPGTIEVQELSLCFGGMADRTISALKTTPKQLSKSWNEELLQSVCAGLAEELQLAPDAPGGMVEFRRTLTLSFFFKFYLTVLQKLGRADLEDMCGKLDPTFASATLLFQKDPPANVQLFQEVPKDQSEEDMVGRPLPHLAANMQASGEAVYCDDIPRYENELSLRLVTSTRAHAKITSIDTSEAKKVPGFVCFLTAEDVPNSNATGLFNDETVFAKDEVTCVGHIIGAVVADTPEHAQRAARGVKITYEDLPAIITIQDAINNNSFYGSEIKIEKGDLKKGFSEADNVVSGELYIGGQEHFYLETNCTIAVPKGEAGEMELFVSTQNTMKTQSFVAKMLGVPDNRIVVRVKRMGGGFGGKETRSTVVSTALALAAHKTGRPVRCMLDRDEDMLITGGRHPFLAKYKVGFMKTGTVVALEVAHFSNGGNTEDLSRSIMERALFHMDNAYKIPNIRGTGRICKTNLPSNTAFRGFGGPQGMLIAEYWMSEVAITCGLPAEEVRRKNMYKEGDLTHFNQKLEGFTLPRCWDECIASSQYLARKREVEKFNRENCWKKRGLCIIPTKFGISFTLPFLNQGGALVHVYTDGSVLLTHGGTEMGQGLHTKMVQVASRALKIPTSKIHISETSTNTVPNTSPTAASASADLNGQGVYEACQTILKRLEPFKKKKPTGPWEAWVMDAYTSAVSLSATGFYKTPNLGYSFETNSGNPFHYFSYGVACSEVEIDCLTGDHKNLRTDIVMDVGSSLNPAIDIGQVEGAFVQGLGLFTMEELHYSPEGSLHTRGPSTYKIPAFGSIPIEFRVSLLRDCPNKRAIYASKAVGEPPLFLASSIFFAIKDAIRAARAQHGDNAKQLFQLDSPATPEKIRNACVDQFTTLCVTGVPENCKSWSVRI

Compound `CC(=O)Nc1ccc(-c2nsc3c(=O)[nH]nnc23)cc1` [7-(4-acetamidophenyl)isothiazolo[4,5-d]-1,2,3-triazin-4(3H)-one] returned a concentration for half-maximal inhibition (IC50) of 7 nM.

Turning to `CSc1ccc(-n2ncc3c(=O)[nH]nnc32)cc1` [7-(4-methylthiophenyl)-7H-pyrazolo[3,4-d]-1,2,3-triazin-4(3H)-one], the half-maximal inhibitory concentration (IC50) was determined as 18 nM.

Compound `COc1ccc(-c2nsc3c(=O)[nH]nnc23)cc1F` [7-(3-fluoro-4-methoxyphenyl)isothiazolo[4,5-d]-1,2,3-triazin-4(3H)-one] gave an IC50 of 8 nM.

`O=c1[nH]nnc2c(-c3cccc(C(F)(F)F)c3)nccc12` [8-(3-trifluoromethylphenyl)pyrido[3,4-d]-1,2,3-triazin-4(3H)-one] yielded an IC50 of 48 nM.

With `COc1ccc(-n2ncc3c(=O)[nH]nnc32)cc1Cl` [7-(3-chloro-4-methoxyphenyl)-7H-pyrazolo[3,4-d]-1,2,3-triazin-4(3H)-one], the IC50 came out at 6 nM.

Consider `COc1ccc(-c2nsc3c(=O)[nH]nnc23)cc1Cl` [7-(3-chloro-4-methoxyphenyl)isothiazolo[4,5-d]-1,2,3-triazin-4(3H)-one], for which the 50% inhibitory concentration (IC50) was found to be 4 nM.

In the case of `COc1ccc(-c2nsc3c(=O)[nH]nnc23)cc1C(F)(F)F` [7-(3-trifluoromethyl-4-methoxyphenyl)isothiazolo[4,5-d]-1,2,3-triazin-4(3H)-one], 4 nM corresponded to half-maximal inhibition (IC50).

For the compound `O=c1[nH]nnc2c1cnn2-c1cccc(C(F)(F)F)c1` [7-(3-Trifluoromethylphenyl)-7H-pyrazolo[3,4-d]-1,2,3-triazin-4(3H)-one], the 50% inhibitory concentration (IC50) was 35 nM.

(Values after US4920119A, “Triazine derivatives” (Hoffmann-La Roche Inc., priority 1986, dated 1990).)
